Test results reported in paper PMC12063173, “Metabolic Profiling of a Mediterranean-Inspired (Poly)phenol-Rich Mixture in the Brain: Perfusion Effect and In Vitro Blood–Brain Barrier Transport Validation” (Journal of Agricultural and Food Chemistry, 2025).
“Also recorded” adds a separate entry of the source.

How the values were obtained:
[1] = Targeted metabolomics (UPLC-ESI-QTOF) identification of metabolites in plasma, PB and NPB; settings: P plasma, PB perfused brain, NPB nonperfused brain, 1-24 h after oral capsule
Experimental: (§2) Adult male Sprague–Dawley rats weighing 250–300 g were purchased from the Animal Experimentation Service of the University of Murcia (Murcia, Spain). […] Based on the experimental design shown in Figure 1, one capsule was administered by gavage to each fasting animal. A total of 40 animals were used in the study. Thirty animals received a capsule containing a mixture of different Mediterranean food extracts, while ten animals received a capsule with microcrystalline cellulose and served as the control group. […] To minimize animal use in accordance with the 3Rs principle, two control animals were sacrificed at each time point (one PB and one NPB). These controls served to identify potential endogenous compounds or background signals not related to the extract administration. All animals were fasted overnight prior to gavage and euthanized with carbon dioxide.
(§3) Plasma samples were extracted with ACN:formic acid (98:2, v/v), centrifuged and evaporated in a speed vacuum concentrator (Savant SPD14 0DDA). The evaporated samples were resuspended in 100 μL MeOH and filtered through 0.22 μm regenerated cellulose filters (Minisart Sartorius, Madrid, Spain). Next, half of the animals at each time point were perfused with ice-cold phosphate-buffered saline, and the blood-free brain was dissected out immediately and stored at – 80 °C until analysis, as previously reported.[37],[48]
(§4) Approximately 400 mg of brain tissue (perfused or nonperfused) was weighed and extensively washed with cold PBS to avoid external blood contamination. After weighting, the samples were placed in 2 mL screw cap tubes. […] The evaporated samples were resuspended in 100 μL MeOH and filtered through 0.22 μm regenerated cellulose filters.
(§5) We performed a targeted metabolomic analysis using an ultrahigh-performance liquid chromatographic system (UPLC) coupled to a quadrupole-time-of-flight (QTOF) mass spectrometer. The phenolic compounds were separated using an Agilent Poroshell 120 column (100 mm × 3 mm, 2.7 μm) and a 5 μL injection volume. […] The flow rate was set constant at 0.4 mL/min. The spectra were acquired in the m/z range from 100 to 1100, in negative polarity mode and an acquisition rate of 1.5 spectra per second. Quantitative data were processed using the Mass HunterQualitative Analysis software (version B.08.00, Agilent). A target screening strategy was applied for the qualitative analysis of possible metabolites derived from the consumption of the Mediterranean blend. […] These compounds encompass derived metabolites conjugated (glucuronides, sulfates, and sulfoglucuronides, among others). The exact mass of the proposed compound was extracted using an extraction window of 0.01 m/z. Metabolite quantification was performed by integrating the peak areas of their extracted ion chromatograms (EICs). Compounds with available standards were quantified using calibration curves derived from the respective standards, while other metabolites were semiquantified based on their peak area values.

[2] = Plasma pharmacokinetics of phenolic metabolites after oral capsule of (poly)phenol-rich Mediterranean extract mixture; settings: for AUC0-t plasma / MRT0-t plasma / T1/2 plasma / Tmax plasma: oral capsule, 0-24 h, n = 6 per time point
Experimental: (§6) Adult male Sprague–Dawley rats weighing 250–300 g were purchased from the Animal Experimentation Service of the University of Murcia (Murcia, Spain). […] Animals were maintained in a temperature-controlled environment with a 12 h light-dark cycle. […] Based on the experimental design shown in Figure 1, one capsule was administered by gavage to each fasting animal. A total of 40 animals were used in the study. Thirty animals received a capsule containing a mixture of different Mediterranean food extracts, while ten animals received a capsule with microcrystalline cellulose and served as the control group. At each time point (1, 3, 6, 8, and 24 h postadministration), six animals from the extract group were sacrificed, three with transcardial perfusion using saline (PB) and three without perfusion (NPB), to assess the distribution of extract-derived metabolites in plasma and brain. To minimize animal use in accordance with the 3Rs principle, two control animals were sacrificed at each time point (one PB and one NPB). […] All animals were fasted overnight prior to gavage and euthanized with carbon dioxide.
(§7) Blood samples collected by cardiac puncture in sodium heparin tubes at each time point after sacrifice were immediately centrifuged at 14,000 × g for 15 min at 4 °C, and the plasma was stored at −80 °C until their analysis. Plasma samples were extracted with ACN:formic acid (98:2, v/v), centrifuged and evaporated in a speed vacuum concentrator (Savant SPD14 0DDA). The evaporated samples were resuspended in 100 μL MeOH and filtered through 0.22 μm regenerated cellulose filters (Minisart Sartorius, Madrid, Spain).
(§8) We performed a targeted metabolomic analysis using an ultrahigh-performance liquid chromatographic system (UPLC) coupled to a quadrupole-time-of-flight (QTOF) mass spectrometer. The phenolic compounds were separated using an Agilent Poroshell 120 column (100 mm × 3 mm, 2.7 μm) and a 5 μL injection volume. The mobile phases used were 0.1% formic acid in water (A) and 0.1% formic acid in ACN (B), and the gradient was: 0–3 min, 5–15% B; 3–11 min, 15–30% B; 11–14 min, 30–50% B, 14–16 min, 50–90% B. Finally, the B content was decreased to the initial conditions (5%) in 1 min, and the column re-equilibrated for 4 min. The flow rate was set constant at 0.4 mL/min. The spectra were acquired in the m/z range from 100 to 1100, in negative polarity mode and an acquisition rate of 1.5 spectra per second.

[3] = Nonperfused brain (NPB) kinetics of phenolic metabolites after oral capsule; format: in vivo, Sprague–Dawley rats; parameters: AUC0-t NPB: concentration or dose not given beside the values; settings: for Tmax / MRT last / half-life: male, Sprague-Dawley, rat, 22 mg extract blend per capsule, one capsule per animal; for MRT last: read-out: MRT0-t NPB; for half-life: read-out: T1/2 NPB (converted)
Excerpt: (§1) Statistical analyses were applied depending on the experimental context.

[4] = Perfused brain (PB) kinetics of phenolic metabolites after oral capsule; format: in vivo, Sprague–Dawley rats; parameters: AUC0-t PB: concentration or dose not given beside the values; settings: perfused brain; for half-life: read-out: T1/2 PB (converted)
Excerpt: as §1

[5] = tested on: human brain microvascular endothelial cells (HBMECs); experiment: In vitro blood–brain barrier transport (Transwell); format: in vitro ADME; settings: 2 h; for transport percentage, individual compounds: HBMEC monolayer, lower compartment / total concentration; for transport percentage, individual compounds / transport efficiency in both mixtures and as individual molecules: 2.5 μM; for transport efficiency in both mixtures and as individual molecules / transport efficiency in MIXperc compared with MIXeq: HBMEC; for transport efficiency in MIXperc compared with MIXeq: mixtures at 2.5 μM final
Experimental: The BBB transport model was established using human brain microvascular endothelial cells (HBMECs), following a methodology previously described.[49] Cells were maintained at 37 °C in a humidified environment with 5% CO2. HBMECs were seeded on 12-well Transwell inserts (12 mm, 0.4 μm pore polyester membrane; Corning, Madrid, Spain) and cultured for 6 days to form confluent monolayers suitable for transport studies. Transport assays were carried out in Hanks’ Balanced Salt Solution (HBSS) supplemented with 0.1% fetal bovine serum (FBS, v/v). The cells were exposed on the apical side to individual phenolic metabolites detected in the brain from the animal study, a representative mixture containing equal concentrations of these metabolites, or a physiological mixture reproducing their relative percentages as observed in the brain. All treatments were applied at a final concentration of 2.5 μM for 2 h (Supporting Information, Table S3). The integrity of the cell monolayers was confirmed by measuring transendothelial electrical resistance (TEER) at the start of the experiment (0 h) and after the last time point (2 h) using an EVOM2 Epithelial Volt Ohm Meter (World Precision Instruments, Inc., USA).
Samples from the apical and basolateral compartments were stored at −80 °C for further analysis. Transport of the compounds was evaluated using UPLC-qTOF as described elsewhere,[38] and transendothelial permeability expressed as a percentage of the ratio between the concentration in the basolateral compartment relative to the total concentration in both compartments.
Finally, one-way ANOVA with Tukey’s multiple comparisons test was exclusively applied to in vitro BBB transport experiments. The three tested conditions for each compound (individual compound, a mixture containing equal concentrations of these compounds, or a physiological mixture reproducing their relative percentages as observed in the brain were evaluated. Plots were performed using GraphPad 9.0 (GraphPad Software, Boston, Massachusetts, USA). Statistical significance was set at P < 0.05.
Figure 3 Transport efficiency of phenolic metabolites across the BBB. Human brain microvascular endothelial cells (HBMEC) were seeded onto semipermeable membranes. […] Detailed composition of both mixtures is given in the Supporting Information, Table S3. Media from the upper and lower compartments were collected, and endothelial transport was evaluated by UPLC-qTOF-MS. The transport percentage (%) was determined by the concentration ratio in the lower compartment to the total concentration (upper and lower compartments). All values are presented as mean ± SD from three independent experiments.

[6] = parameters: method as in doi:10.1016/j.jff.2015.09.019; settings: human, even upon high free ellagic acid intake; cited from earlier work
[7] = rat, in vivo
Experimental: as §2, §3, §4, §5

in vivo = settings: male, Sprague-Dawley, rat, po
Experimental: as §6, §7, §8

[8] = male, Sprague-Dawley, rat, po, 22 mg extract blend per capsule, one capsule per animal
[9] = nonperfused brain, oral capsule, 0-24 h, n = 3 per time point
[10] = male, Sprague-Dawley, rat, 22 mg extract blend per capsule, one capsule per animal, oral capsule, 0-24 h, n = 3 per time point
[11] = oral capsule, 0-24 h, n = 3 per time point
[12] = read-out: Cmax plasma, oral capsule, 0-24 h, n = 6 per time point

SMILES	occurrence [1]	AUC(0-t) [2, 8] [µM·h]	Cmax [2, 8] [nM]	MRT last [2, 8] [h]	Tmax [2, 8] [h]	half-life [2, 8] [h]	Tmax [3, 9] [h]	MRT last [3, 9] [h]	half-life [3, 9] [h]	AUC0-t NPB [3, 9] [pmol·h/g]	Cmax NPB [3, 9] [pmol/g tissue]	Tmax [4, 10] [h]	AUC0-t PB [4, 11] [pmol·h/g]	Cmax PB [4, 11] [pmol/g tissue]	transport percentage, individual compounds [5]	transport efficiency in both mixtures and as individual molecules [5]	transport efficiency in MIXperc compared with MIXeq [5]	AUC0-t plasma [2] [µM·h]	MRT0-t plasma [2] [h]	T1/2 plasma [2] [h]	also measured
O=C(O)CCc1cccc(O)c1 [3-(3-hydroxyphenyl) propionic acid]	PB, NPB, P	0.481 ± 0.353	39 ± 20	9.77	13 ± 11	6.9	7.5 ± 3.1	11 ± 4.1	20 ± 15	13 ± 11	4.0 ± 3.6	3.3 ± 2.5	11 ± 6.8	1.0 ± 0.5	exceeding 20%	relatively consistent transport efficiencies					occurrence ([1]; listed as 3-(3-hydroxyphenyl)propionic acid): consistently detected in plasma and brain at all time points; MRT last ([4]; male, Sprague-Dawley, rat, 22 mg extract blend per capsule, one capsule per animal, oral capsule, 0-24 h, n = 3 per time point, read-out: MRT0-t PB): 11 ± 6.9 h; half-life [4, 10]: 11 ± 6.9 h
O=C(O)CCCCc1cccc(O)c1 [5-(3-hydroxyphenyl)-valeric acid]	PB, NPB, P	0.055 ± 0.011	4.8 ± 1.9	43 ± 45	7.4 ± 9.5	29 ± 32	2.3 ± 1.2	102 ± 62	70 ± 46	33 ± 4.8	3.4 ± 0.7	2 ± 1.2	30 ± 6.5	2.4 ± 0.8			lower transport percentages				occurrence ([1]; listed as 5-(3-hydroxyphenyl)valeric acid): consistently detected in plasma and brain at all time points; concentration in plasma (approximate) [2]: approximately 5 nM; half-life [4, 10]: 39 ± 19 h
O=C(O)C=Cc1ccc(O)c(OS(=O)(=O)O)c1 [caffeic acid 3-O-sulfate]	PB, NPB, P									3.32	0.24		4.7 ± 1.8	1.0 ± 0.7	exceeding 20%	relatively consistent transport efficiencies		0.282 ± 0.332	13 ± 8.8	8.3 ± 4.9	Tmax plasma [2]: 8.6 ± 8.9 h; Cmax [2, 12]: 22 ± 21 nM; Tmax NPB [3, 9]: 3.00 h; MRT0-t PB [4, 11]: 8.7 ± 7.3 h; T1/2 PB [4, 11]: 5.2 ± 5.7 h; Tmax PB [4, 11]: 3.0 ± 0.1 h
O=C(O)CCc1ccc(O)c(O)c1 [dihydrocaffeic acid]	PB, NPB, P	0.127 ± 0.031	16 ± 8.6	86 ± 138	2.6 ± 0.9	61 ± 94	24			18 ± 1	0.9 ± 0.1	4.5 ± 5	11 ± 2.8	0.7 ± 0.3	< 5%						occurrence ([1]; listed as 3-(3,4-dihydroxyphenyl)propionic acid): consistently detected in plasma and brain at all time points
O=C(O)[C@H]1O[C@@H](Oc2cc(O)cc(CCc3ccc(O)cc3)c2)[C@H](O)[C@@H](O)[C@@H]1O [dihydroresveratrol 3-O-glucuronide]	PB, NPB, P									5.3 ± 2.8	0.5 ± 0.1		1.3 ± 0.7	0.4 ± 0.1			significantly higher transport efficiencies	0.993 ± 0.558	14 ± 5.8	8.1 ± 3.2	Tmax plasma [2]: 6.2 ± 2.1 h; Cmax [2, 12]: 93 ± 45 nM; MRT0-t NPB [3, 9]: 44 ± 1 h; T1/2 NPB [3, 9]: 27 ± 1 h; Tmax NPB [3, 9]: 6.7 ± 1.2 h; MRT0-t PB [4, 11]: 23 ± 26 h; T1/2 PB [4, 11]: 15 ± 18 h; Tmax PB [4, 11]: 3.3 ± 2.1 h
O=c1oc2c(O)c(O)cc3c(=O)oc4c(O)c(O)cc1c4c23 [ellagic acid]	PB, NPB, P	0.0141 ± 0.0074	1.1 ± 0.8	103	10 ± 12		15 ± 13	56.9	36.3	7.1 ± 7.5	0.9 ± 0.9	16 ± 11	1.5 ± 1.1	0.1 ± 0.08			significantly higher transport efficiencies				concentration in NPB relative to PB ([3]; NPB versus PB): 9 fold; free ellagic acid concentration in plasma [6]: ≤ 100 nM
O=C(O)C=Cc1ccc(OS(=O)(=O)O)cc1 [p-coumaric acid 4-O-sulfate]	PB, NPB, P									1.6 ± 0.6	0.2 ± 0.1			2.8 ± 2.4	exceeding 20%	relatively consistent transport efficiencies		0.293 ± 0.154	45 ± 37	33 ± 28	Tmax plasma [2]: 3.6 ± 2.6 h; Cmax [2, 12]: 44 ± 47 nM; Tmax NPB [3, 9]: 3.0 ± 0.0 h; PB concentration relative to ferulic acid 4-O-sulfate [4]: 14 fold; MRT0-t PB [4, 11]: 30 ± 20 h; T1/2 PB [4, 11]: 23.85 h; Tmax PB [4, 11]: 19 ± 12 h
O=S(=O)(O)Oc1cc(O)cc(C=Cc2ccc(O)cc2)c1 [resveratrol 3-O-sulfate]	detected in plasma, PB, and NPB; also recorded: PB, NPB, P	0.0084 ± 0.01	2.2 ± 2.6	8.5 ± 5.5	5.2 ± 2.2	3.9 ± 4.3	15 ± 13			2.2 ± 0.1	0.2 ± 0.04	5 ± 1.7	0.1 ± 0.1	0.1 ± 0.01	< 5%		lower transport percentages				
O=S(=O)(O)Oc1ccc(C=Cc2cc(O)cc(O)c2)cc1 [resveratrol 4’-O-sulfate]	restricted to plasma																				concentration–time profile in brain (Figure 2) [7]: Not detected; AUC(0-t) (in vivo): 0.026 ± 0.027 µM·h; Cmax (in vivo): 2.9 ± 2.8 nM; MRT last (in vivo): 10.7 h; Tmax (in vivo): 7.3 ± 1.2 h; half-life (in vivo): 5.6 h
